Laboratory results taken from US20190025313A1, “TREATMENT OF TUMORS INCORPORATING MUTANT ISOCITRATE DEHYDROGENASE” (Agios Pharmaceuticals, Inc., priority 2015, published 2019).

How the values were obtained:
Assay type in all cases: cell-based
mIDH1 TF1 cells = test: Metabolic activity (ATP fold-change) and rescue in mIDH1 TF1 cells; conditions: for drop in metabolic activity / rescue of brequinar-induced drop in metabolic activity: Brequinar 2 μM; for drop in metabolic activity: ATP fold-change day 3 over day 0
Method: (§1) TF1-pLVX (wildtype) cells were pLVX plated at 20 k/ml, 90 μl/well while TF1/R132H27 (mIDH1) and TF1/R140Q11 (mIDH2) cells were plated at 80 k/ml, 90 μl/well in RPMI, 10% FBS, G418 and GM-CSF. Test compound was added on day 0 and CellTiter-Glo, assay (Promega) was performed on day 3/4 and 7. Medium was not changed during 7-day culture.
(§2) Data was expressed as ATP fold-change: day 3 over day 0.

mIDH2 TF1 cells = test: Metabolic activity (ATP fold-change) and rescue in mIDH2 TF1 cells; conditions: for drop in metabolic activity / rescue of brequinar-induced drop in metabolic activity: Brequinar 2 μM; for drop in metabolic activity: ATP fold-change day 3 over day 0
Method: as §1, §2

[1] = system: TF1/R132H27 (mIDH1) cells; test: Proliferation assay (CellTiter-Glo) of mutant IDH1 TF1 cells; conditions: Homo sapiens, TF-1, mutant IDH1 (R132H) TF1 cells, read-out: IC50, inhibition of proliferation
Method: (§3) Proliferation Assay of Wild Type and Mutant IDH Cell Lines
as §1

[2] = system: TF1/R140Q11 (mIDH2) cells; test: Proliferation assay (CellTiter-Glo) of mutant IDH2 TF1 cells; conditions: Homo sapiens, TF-1, mutant IDH2 (R140Q) TF1 cells, read-out: IC50, inhibition of proliferation
Method: as §3, §1

TF1 cells [3] = test: Proliferation assay, cell line not specified (IC90 at day 7); conditions: Homo sapiens, TF-1, 168 h, cell line not stated
Method: as §1, §2

TF1 cells [4] = test: Metabolic activity (ATP fold-change) in methotrexate treated TF1 cells; conditions: FIG. 3
From the text: Metabolic activity was rescued in mIDH1 and mIDH2 TF1 cells with 3-day folinic acid supplement.

[5] = 3-day folinic acid supplement, methotrexate treated, FIG. 3
[6] = uridine 8 μM, 3-day supplement, FIG. 2A

## Nc1nc(=O)c2c([nH]1)NCC(CNc1ccc(C(=O)N[C@@H](CCC(=O)O)C(=O)O)cc1)N2C=O (mixture of isomers) [folinic acid]
mIDH1 TF1 cells; [5]
  rescue of methotrexate-induced drop in metabolic activity: rescued
mIDH2 TF1 cells; [5]
  rescue of methotrexate-induced drop in metabolic activity: rescued

## Cc1c(-c2ccc(-c3ccccc3F)cc2)nc2ccc(F)cc2c1C(=O)O [Brequinar, brequinar]
[1]
  IC50: 1300 nM
[2]
  IC50: 1600 nM
mIDH1 TF1 cells; FIG. 2A
  drop in metabolic activity: 73%
mIDH1 TF1 cells; FIG. 2B
  drop in metabolic activity: 77%
mIDH2 TF1 cells; FIG. 2A
  drop in metabolic activity: 52%
mIDH2 TF1 cells; FIG. 2B
  drop in metabolic activity: 47%
TF1 cells [3]
  IC90: ~2000 nM

## CN(Cc1cnc2nc(N)nc(N)c2n1)c1ccc(C(=O)N[C@@H](CCC(=O)O)C(=O)O)cc1 [methotrexate]
TF1 cells [4]
  metabolic activity expressed as ATP fold-change (day 3 over day 0): drop in metabolic activity

## O=c1ccn([C@@H]2O[C@H](CO)[C@@H](O)[C@H]2O)c(=O)[nH]1 [uridine]
mIDH1 TF1 cells; [6]
  rescue of brequinar-induced drop in metabolic activity: rescued
mIDH1 TF1 cells; uridine 1,000 μM, FIG. 2B
  rescue of brequinar-induced drop in metabolic activity: rescued
mIDH2 TF1 cells; [6]
  rescue of brequinar-induced drop in metabolic activity: rescued
mIDH2 TF1 cells; uridine 1,000 μM, FIG. 2B
  rescue of brequinar-induced drop in metabolic activity: rescued
